# Results reported in PMC9866706 (Toxins, 2022).
# “Also recorded” adds a separate entry of the source. Bridges are numbered along the chain shown (N, C = ends). Where no end group is shown, it is not given here.
# Columns and labels:
# [1] = system: KVAP; parameters: method as in doi.org/10.1038/nature01473; settings: ref doi.org/10.1038/nature01473; cited from earlier work
# [2] = molecular target: T1, rα4β4 nAChR (Rattus norvegicus, UniProt P09483+P12392); assay: ACh-evoked currents in Xenopus oocytes (TEVC), rα4β4; format: cell-based
# T1 construct: expressed in transfected cells; host or cells: Xenopus laevis oocytes injected with cRNA
# [3] = molecular target: T2, rα3β4 nAChR (Rattus norvegicus, UniProt P04757+P12392); assay: ACh-evoked currents in Xenopus oocytes (TEVC), rα3β4; format: cell-based
# T2 construct: expressed in transfected cells; host or cells: Xenopus laevis oocytes injected with cRNA
# [4] = molecular target: T3, hα7 nAChR (Homo sapiens, UniProt P36544); assay: ACh-evoked currents in Xenopus oocytes (TEVC), hα7; format: cell-based
# T3 construct: expressed in transfected cells; host or cells: Xenopus laevis oocytes injected with cRNA
# [5] = molecular target: T4, rα3β2 nAChR (Rattus norvegicus, UniProt P04757+P12390); assay: ACh-evoked currents in Xenopus oocytes (TEVC), rα3β2; format: cell-based
# T4 construct: expressed in transfected cells; host or cells: Xenopus laevis oocytes injected with cRNA
# [6] = molecular target: T5, rα9α10 nAChR (Rattus norvegicus, UniProt P43144+Q9JLB5); assay: ACh-evoked currents in Xenopus oocytes (TEVC), rα9α10; format: cell-based
# T5 construct: expressed in transfected cells; host or cells: Xenopus laevis oocytes injected with cRNA
# [7] = molecular target: T6, mα1β1δε nAChR (Mus musculus, UniProt P02716+P04756+P09690+P20782); assay: ACh-evoked currents in Xenopus oocytes (TEVC), mα1β1δε; format: cell-based
# T6 construct: expressed in transfected cells; host or cells: Xenopus laevis oocytes injected with cRNA
# [8] = molecular target: T7, rα2β4 nAChR (Rattus norvegicus, UniProt P12389+P12392); assay: ACh-evoked currents in Xenopus oocytes (TEVC), rα2β4; format: cell-based
# T7 construct: expressed in transfected cells; host or cells: Xenopus laevis oocytes injected with cRNA
# [9] = molecular target: T8, rα2β2 nAChR (Rattus norvegicus, UniProt P12389+P12390); assay: ACh-evoked currents in Xenopus oocytes (TEVC), rα2β2; format: cell-based
# T8 construct: expressed in transfected cells; host or cells: Xenopus laevis oocytes injected with cRNA
# [10] = molecular target: T9, rα7 nAChR (Rattus norvegicus, UniProt Q05941); assay: ACh-evoked currents in Xenopus oocytes (TEVC), rα7; format: cell-based
# T9 construct: expressed in transfected cells; host or cells: Xenopus laevis oocytes injected with cRNA
# [11] = molecular target: T10, rα4β2 nAChR (Rattus norvegicus, UniProt P09483+P12390); assay: ACh-evoked currents in Xenopus oocytes (TEVC), rα4β2; format: cell-based
# T10 construct: expressed in transfected cells; host or cells: Xenopus laevis oocytes injected with cRNA
# [12] = molecular target: T11, rα6/α3β4 nAChR (Rattus norvegicus, UniProt P04757+P12392+P43143); assay: ACh-evoked currents in Xenopus oocytes (TEVC), rα6/α3β4; format: cell-based
# T11 construct: expressed in transfected cells; host or cells: Xenopus laevis oocytes injected with cRNA
# [13] = system: TRPC1; parameters: method as in doi.org/10.1016/j.toxicon.2006.09.030; settings: ref doi.org/10.1016/j.toxicon.2006.09.030; cited from earlier work
# [14] = system: Nav1.8; parameters: method as in earlier work; settings: ref doi.org/10.1016/j.cub.2014.01.013; doi.org/10.1016/j.toxicon.2006.09.014; cited from earlier work
# [15] = system: Nav1.5; parameters: method as in earlier work; settings: ref doi.org/10.1016/j.cub.2014.01.013; doi.org/10.1016/j.toxicon.2006.09.014; cited from earlier work
# [16] = system: Nav1.2; parameters: method as in earlier work; settings: ref doi.org/10.1016/j.cub.2014.01.013; doi.org/10.1016/j.toxicon.2006.09.014; cited from earlier work
# [17] = system: TRPA1; parameters: method as in earlier work; settings: ref doi.org/10.1016/j.cub.2014.01.013; doi.org/10.1016/j.toxicon.2006.09.014; cited from earlier work
# [18] = system: Nav1.7; parameters: method as in earlier work; settings: ref doi.org/10.1016/j.cub.2014.01.013; doi.org/10.1016/j.toxicon.2006.09.014; cited from earlier work
# [19] = system: neuronal tetrodotoxin-sensitive voltage-gated sodium channel of adult rat dorsal root ganglion neurons; settings: cited from earlier work
# [20] = system: tetrodotoxin-resistant voltage-gated sodium channel; settings: cited from earlier work
# T5 sequence (Q9JLB5 25-447): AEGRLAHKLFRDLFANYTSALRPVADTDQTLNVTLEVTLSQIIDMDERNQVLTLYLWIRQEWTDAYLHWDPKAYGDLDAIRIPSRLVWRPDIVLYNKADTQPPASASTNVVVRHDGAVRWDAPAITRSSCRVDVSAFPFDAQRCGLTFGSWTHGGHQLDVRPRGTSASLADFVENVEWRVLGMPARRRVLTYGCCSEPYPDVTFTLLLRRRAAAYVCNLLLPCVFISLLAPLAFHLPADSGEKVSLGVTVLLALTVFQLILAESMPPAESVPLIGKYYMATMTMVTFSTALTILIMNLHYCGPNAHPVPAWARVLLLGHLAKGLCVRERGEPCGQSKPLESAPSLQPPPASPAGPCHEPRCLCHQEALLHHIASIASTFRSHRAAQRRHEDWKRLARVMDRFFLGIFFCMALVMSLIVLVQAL
# T5 sequence (P43144 26-479): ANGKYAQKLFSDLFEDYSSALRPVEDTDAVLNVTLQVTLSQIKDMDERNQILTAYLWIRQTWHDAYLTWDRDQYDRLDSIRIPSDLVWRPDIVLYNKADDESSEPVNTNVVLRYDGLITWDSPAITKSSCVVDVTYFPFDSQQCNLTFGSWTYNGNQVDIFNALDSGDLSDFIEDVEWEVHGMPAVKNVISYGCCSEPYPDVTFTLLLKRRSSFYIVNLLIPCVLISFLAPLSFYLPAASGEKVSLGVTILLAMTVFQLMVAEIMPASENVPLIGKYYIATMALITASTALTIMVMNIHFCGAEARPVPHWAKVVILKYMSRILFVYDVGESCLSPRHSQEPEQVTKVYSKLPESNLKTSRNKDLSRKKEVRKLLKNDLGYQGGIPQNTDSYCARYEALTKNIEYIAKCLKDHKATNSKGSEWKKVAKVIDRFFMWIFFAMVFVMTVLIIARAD
# T9 sequence (Q05941 23-502): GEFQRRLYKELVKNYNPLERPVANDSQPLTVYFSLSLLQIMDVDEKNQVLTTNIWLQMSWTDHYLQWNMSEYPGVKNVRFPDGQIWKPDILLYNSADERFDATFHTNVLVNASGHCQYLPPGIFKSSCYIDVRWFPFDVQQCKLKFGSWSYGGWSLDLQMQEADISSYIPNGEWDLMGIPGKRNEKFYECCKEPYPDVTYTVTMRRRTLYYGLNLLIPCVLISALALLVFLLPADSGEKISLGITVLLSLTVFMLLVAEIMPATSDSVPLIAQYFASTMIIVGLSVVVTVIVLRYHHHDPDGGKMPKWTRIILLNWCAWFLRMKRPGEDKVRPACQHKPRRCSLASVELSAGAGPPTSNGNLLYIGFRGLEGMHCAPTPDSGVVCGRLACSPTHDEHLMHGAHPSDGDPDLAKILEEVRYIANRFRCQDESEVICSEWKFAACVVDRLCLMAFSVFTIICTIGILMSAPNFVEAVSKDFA
# T6 sequence (P20782 21-493): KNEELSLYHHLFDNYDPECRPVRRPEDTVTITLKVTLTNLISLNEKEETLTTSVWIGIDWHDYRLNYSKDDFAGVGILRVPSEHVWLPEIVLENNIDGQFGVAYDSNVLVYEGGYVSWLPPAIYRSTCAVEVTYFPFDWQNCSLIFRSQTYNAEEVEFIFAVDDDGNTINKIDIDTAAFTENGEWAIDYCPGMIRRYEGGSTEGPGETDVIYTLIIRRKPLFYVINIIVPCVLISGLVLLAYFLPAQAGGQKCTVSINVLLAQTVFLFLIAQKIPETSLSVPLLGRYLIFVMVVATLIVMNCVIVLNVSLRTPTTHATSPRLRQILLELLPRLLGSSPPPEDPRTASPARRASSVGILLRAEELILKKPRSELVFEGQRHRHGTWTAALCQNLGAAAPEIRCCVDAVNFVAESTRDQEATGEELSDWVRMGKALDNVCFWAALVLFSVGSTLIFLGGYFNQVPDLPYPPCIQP
# T6 sequence (P04756 21-457): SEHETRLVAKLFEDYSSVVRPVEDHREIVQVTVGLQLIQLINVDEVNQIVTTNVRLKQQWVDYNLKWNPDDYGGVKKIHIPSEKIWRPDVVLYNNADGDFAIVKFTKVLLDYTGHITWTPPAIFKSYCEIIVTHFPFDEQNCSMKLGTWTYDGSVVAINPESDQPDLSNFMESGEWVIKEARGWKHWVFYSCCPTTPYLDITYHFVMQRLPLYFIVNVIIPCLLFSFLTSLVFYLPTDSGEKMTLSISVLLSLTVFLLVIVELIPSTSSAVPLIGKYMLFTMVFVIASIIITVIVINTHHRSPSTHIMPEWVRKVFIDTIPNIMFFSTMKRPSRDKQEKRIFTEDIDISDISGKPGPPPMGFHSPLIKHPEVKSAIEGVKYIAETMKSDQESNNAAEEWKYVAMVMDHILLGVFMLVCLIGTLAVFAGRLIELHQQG
# T6 sequence (P09690 24-501): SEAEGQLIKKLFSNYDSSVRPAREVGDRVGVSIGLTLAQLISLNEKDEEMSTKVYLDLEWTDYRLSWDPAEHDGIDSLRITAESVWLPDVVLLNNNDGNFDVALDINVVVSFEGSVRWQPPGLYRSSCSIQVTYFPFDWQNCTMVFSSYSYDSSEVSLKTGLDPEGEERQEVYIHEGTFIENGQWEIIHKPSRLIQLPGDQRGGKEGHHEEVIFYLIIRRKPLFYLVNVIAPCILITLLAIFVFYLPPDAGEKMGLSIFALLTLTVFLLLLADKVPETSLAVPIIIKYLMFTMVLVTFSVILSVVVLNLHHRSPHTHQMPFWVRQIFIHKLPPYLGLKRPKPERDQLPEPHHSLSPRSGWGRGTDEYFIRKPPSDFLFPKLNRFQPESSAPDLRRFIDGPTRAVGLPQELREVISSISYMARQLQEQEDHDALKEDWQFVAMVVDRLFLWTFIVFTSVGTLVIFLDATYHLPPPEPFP
# T6 sequence (P02716 25-520): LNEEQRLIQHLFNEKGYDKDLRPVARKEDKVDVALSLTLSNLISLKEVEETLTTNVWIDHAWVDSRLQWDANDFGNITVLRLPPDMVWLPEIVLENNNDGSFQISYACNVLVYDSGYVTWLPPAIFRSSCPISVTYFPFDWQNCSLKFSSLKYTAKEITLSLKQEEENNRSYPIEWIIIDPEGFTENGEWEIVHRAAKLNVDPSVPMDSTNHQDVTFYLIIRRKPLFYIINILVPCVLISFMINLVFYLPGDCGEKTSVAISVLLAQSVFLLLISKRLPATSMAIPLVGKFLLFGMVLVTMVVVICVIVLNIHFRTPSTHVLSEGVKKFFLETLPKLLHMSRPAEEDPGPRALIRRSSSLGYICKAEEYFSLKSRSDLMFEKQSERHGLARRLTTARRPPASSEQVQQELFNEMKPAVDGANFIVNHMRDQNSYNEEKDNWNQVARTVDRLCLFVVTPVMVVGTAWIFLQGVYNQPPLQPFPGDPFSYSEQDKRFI
# T2 sequence (P04757 26-499): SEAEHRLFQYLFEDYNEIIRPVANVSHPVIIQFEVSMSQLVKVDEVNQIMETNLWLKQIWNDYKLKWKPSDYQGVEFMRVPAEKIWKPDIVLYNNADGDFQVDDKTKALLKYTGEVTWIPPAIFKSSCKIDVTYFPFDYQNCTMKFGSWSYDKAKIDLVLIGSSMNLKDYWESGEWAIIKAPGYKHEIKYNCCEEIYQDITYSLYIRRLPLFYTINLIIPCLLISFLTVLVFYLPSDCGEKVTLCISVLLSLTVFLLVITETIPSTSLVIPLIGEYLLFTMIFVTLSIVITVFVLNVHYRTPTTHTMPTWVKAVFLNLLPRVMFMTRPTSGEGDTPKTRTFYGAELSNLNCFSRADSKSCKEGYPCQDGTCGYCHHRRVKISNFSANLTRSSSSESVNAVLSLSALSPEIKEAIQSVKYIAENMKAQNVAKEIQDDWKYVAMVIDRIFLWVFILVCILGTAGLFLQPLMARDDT
# T2 sequence (P12392 21-495): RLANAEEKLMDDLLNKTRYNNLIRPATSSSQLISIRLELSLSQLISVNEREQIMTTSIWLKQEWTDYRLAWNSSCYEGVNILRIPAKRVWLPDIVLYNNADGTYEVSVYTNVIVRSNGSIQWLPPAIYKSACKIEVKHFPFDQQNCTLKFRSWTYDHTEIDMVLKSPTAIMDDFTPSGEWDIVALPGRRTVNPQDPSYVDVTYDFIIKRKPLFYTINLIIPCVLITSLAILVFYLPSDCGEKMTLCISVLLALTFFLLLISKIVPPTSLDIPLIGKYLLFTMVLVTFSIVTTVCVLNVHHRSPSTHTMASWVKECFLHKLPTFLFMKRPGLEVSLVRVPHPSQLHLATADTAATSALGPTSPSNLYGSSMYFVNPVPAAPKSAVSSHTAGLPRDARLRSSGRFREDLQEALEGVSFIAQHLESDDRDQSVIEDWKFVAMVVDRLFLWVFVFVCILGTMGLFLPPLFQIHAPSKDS
# T3 sequence (P36544 23-502): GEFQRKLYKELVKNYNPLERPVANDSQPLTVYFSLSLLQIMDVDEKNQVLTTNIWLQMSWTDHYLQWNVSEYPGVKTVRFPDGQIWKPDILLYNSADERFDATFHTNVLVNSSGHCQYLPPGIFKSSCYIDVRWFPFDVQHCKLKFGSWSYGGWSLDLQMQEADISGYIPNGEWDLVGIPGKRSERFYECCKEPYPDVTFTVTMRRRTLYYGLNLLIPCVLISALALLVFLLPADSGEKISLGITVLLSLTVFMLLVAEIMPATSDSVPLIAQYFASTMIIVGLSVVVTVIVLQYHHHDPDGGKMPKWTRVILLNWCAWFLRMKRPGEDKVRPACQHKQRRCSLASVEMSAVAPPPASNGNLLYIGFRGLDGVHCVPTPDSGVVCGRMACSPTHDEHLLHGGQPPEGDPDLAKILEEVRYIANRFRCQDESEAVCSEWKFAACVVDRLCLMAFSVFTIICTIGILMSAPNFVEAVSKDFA
substance,measurement,setting,value
"VSTx1: Grammostola rosea toxin, PDB 2N1N (ECGKFMWKCKNSNDCCKDLVCSSRWKWCVLASPF; UniProt P60980 30-63, looked up)",Target (that was in the corresponding Ref.),[1],KVAP
"GCKKLNSYCTRQHRECCHGLVCRRPDYGIGRGILWKCTRARK (disulfide 2-17, 9-22, 16-37) [Ms11a-3]",IC50,[2],> 10 µM
same,IC50,[3],5.17 µM
same,Hill Slope,[3]; mean (95% confidence interval),0.84 (0.67–1.00)
same,IC50,[4],8.87 µM
same,Hill Slope,[4]; mean (95% confidence interval),0.95 (0.30–1.61)
same,IC50,[5],> 10 µM
same,IC50,[6],0.202 µM
same,functional antagonism,[6]; compared to the muscle and α7 receptors,highest antagonism; also recorded: effectively blocking the neuronal α9α10 and to a lesser extent muscle nAChR subtypes
same,Hill Slope,[6]; mean (95% confidence interval),0.71 (0.52–0.90)
same,IC50,[7],1.21 µM
same,Hill Slope,[7]; mean (95% confidence interval),1.35 (0.71–1.99)
same,IC50,[8],> 10 µM
same,IC50,[9],> 10 µM
same,IC50,[10],4.79 µM
same,Hill Slope,[10]; mean (95% confidence interval),0.99 (0.59–1.40)
same,functional potency,[10]; towards α7 and heteromeric nAChRs,lowest potency
same,IC50,[11],> 10 µM
same,IC50,[12],> 10 µM
GsMTx-4,Target (that was in the corresponding Ref.),[13],TRPC1
ProTx-I,Target (that was in the corresponding Ref.),[14],Nav1.8
same,Target (that was in the corresponding Ref.),[15],Nav1.5
same,Target (that was in the corresponding Ref.),[16],Nav1.2
same,IC50,[17],0.389 ± 0.077 µM
same,Target (that was in the corresponding Ref.),[18],Nav1.7
"HWTX-IV: Haplopelma schmidti toxin, PDB 1MB6",IC50,[19],0.03 µM
same,No (or weak) effect,[20],No (or weak) effect
